# Source: publication PMC8037814, “Polymorphic Characterization, Pharmacokinetics, and Anti-Inflammatory Activity of Ginsenoside Compound K Polymorphs” (Molecules, 2021)
# Several values for one entry are separate records, joined by “and”; a condition that tells them apart may be missing. Equal values may be shown once. Read-outs that look alike come from different tables or passages of the source.
# Experiments:
# [1] = Pharmacokinetics after intravenous administration of CK in rats (10 mg/kg); format: in vivo, Sprague-Dawley rats; settings: male rats, i.v. 10 mg/kg; for MRT last: read-out: MRT(0-t); for half-life: read-out: t1/2z (converted)
# Procedure: All samples were analyzed with a triple quadrupole LC-MS/MS (API 4000 LC-MS/MS, AB Sciex, Framingham, MA, USA) coupled with an Agilent 1200 HPLC system (Agilent Technologies, Palo Alto, CA, USA). The MS was equipped with an electrospray system (ESI). The N2 gas temperature and ion-spray voltage were set to 550 °C and 4.5 kV, respectively. CK was measured in multiple reaction monitoring (MRM) mode using a negative electrospray ionization source at m/z 667.4 → 621.2 for CK (CID 25.6 v) and m/z 271.2 → 228.8 for internal standard (IS, (E)-5-(4-fluorostyryl)-2-isopropylbenzene-1,3-diol, Welichem Biotech Inc., Wayburne Drive Burnaby, BC, Canada) (CID 28.3 v) with a dwell time of 0.1 s.
# Rats were divided randomly into 5 groups of six animals each (sex in half) and given 7 days to acclimatize to the facility before the experiments began. The four forms of CK were suspended in 0.5% sodium carboxymethyl cellulose (CMC-Na) solution and orally administered to rats at a dose of 20 mg/kg. A CK solution in a mixed solvent of dimethyl sulfoxide (DMSO)/castor oil/physiologic saline (3:5:92, v/v) was intravenously administered to the remaining group via the tail vein at a dose of 10 mg/kg. Blood samples were collected by retro-orbital puncture at the following times: 0.167, 0.333, 0.667, 1, 2, 3, 4, 6, 9, 12, and 24 h for the oral administration, and at 0.0083, 0.05, 0.133, 0.25, 0.5, 1, 2, 4, 6, and 9 h for the intravenous administration. Plasma samples were obtained by centrifuging a heparinized blood tube at 4000 rpm for 5 min and then stored at −70 °C until analysis.
# The procedure for drug extraction from plasma samples was as follows: 0.2 mL acetonitrile, 0.2 mL plasma sample, and 10 μL IS (1 µg/mL) were added into a 1.5 mL Eppendorf-type tube. This mixture was vortexed for 1 min and then treated with 0.8 mL of methyl tert-butyl ether (MTBE) to precipitate the plasma proteins. After a mechanical vortex for 1 min and subsequent centrifugation (4000 rpm, 5 min), 0.8 mL of the supernatant was transferred and blow-dried with N2 at 40 °C in a water bath. Finally, the residue was dissolved in 120 μL of mobile phase, and then 10 μL was subjected to HPLC for analysis. […] Intra- and inter-day precision and accuracy never exceeded 15% by analyzing six replicate samples.
# The CK pharmacokinetic parameters in rats, including the area under the curve (AUC(0–t) and AUC(0–∞)), mean residence time (MRT(0–t) and MRT(0–∞)), maximum concentration (Cmax), time to maximum concentration (Tmax), half-life (t1/2), apparent distribution volume (V), and total plasma clearance (CL), were derived from plasma concentration-time curves by using non-compartmental analysis (NCA) with DAS 2.0 software (Drug And Statistics, Mathematical Pharmacology Professional Committee of China, Shanghai, China). The absolute bioavailability (Fabs) was calculated from the dose-adjusted ratio of AUCp.o. to AUCi.v.. One-way analysis of variance (ANOVA) by SPSS 11.5 (SPSS Inc., Chicago, IL, USA) was conducted to compare the primary PK parameters.
# [2] = cited from earlier work
# [3] = male, Sprague-Dawley, rat, plasma, iv, 10 mg/kg, Mean±SD, read-out: Plasma concentrations of CK
# [4] = male, Sprague-Dawley, rat, plasma, iv, 10 mg/kg, individual rats 1-3, read-out: Plasma concentrations of CK
# [5] = male, Sprague-Dawley, rat, plasma, iv, 10 mg/kg, Mean±SD
# [6] = male, Sprague-Dawley, rat, plasma, iv, 10 mg/kg, individual rats 1-3
smiles,measurement,setting,value
"CC(C)=CCCC(C)(OC1OC(CO)C(O)C(O)C1O)C1CCC2(C)C1C(O)CC1C3(C)CCC(O)C(C)(C)C3CCC12C [CK, 20-O-β-D-glucopyranosyl-20(S)-protopanaxadiol]",Plasma concentrations of CK,"[1]; 1 h, individual rats 1-3, 10 mg/kg",75.42 ng/mL and 107.64 ng/mL
same,Plasma concentrations of CK,"[1]; 2 h, individual rats 1-3, 10 mg/kg",41.16 ng/mL and 54.90 ng/mL
same,Plasma concentrations of CK,"[1]; 4 h, individual rats 1-3, 10 mg/kg",42.63 ng/mL and 32.27 ng/mL and 85.89 ng/mL
same,Plasma concentrations of CK,"[1]; 6 h, individual rats 1-3, 10 mg/kg",14.03 ng/mL and 27.30 ng/mL
same,Plasma concentrations of CK,"[1]; 9 h, individual rats 1-3, 10 mg/kg",11.73 ng/mL and 16.36 ng/mL
same,CLz/F,[1]; Mean±SD,90 ± 18 mL/min/kg
same,Vz/F,[1]; Mean±SD,24.21 ± 7.69 L/kg
same,AUC(0-t),"[1]; individual rats 1-3, 10 mg/kg",2963.73 ng·h/mL and 3980.16 ng·h/mL
same,AUC(0-∞),"[1]; individual rats 1-3, 10 mg/kg",3012.98 ng·h/mL and 4074.46 ng·h/mL
same,CLz/F,"[1]; individual rats 1-3, 10 mg/kg",77.7 mL/min/kg and 111 mL/min/kg and 81.8 mL/min/kg
same,MRT(0-t),"[1]; individual rats 1-3, 10 mg/kg",19.2 min and 27.2 min
same,MRT(0-∞),"[1]; individual rats 1-3, 10 mg/kg",22.8 min and 32.4 min and 47.4 min
same,Vz/F,"[1]; individual rats 1-3, 10 mg/kg",15.34 L/kg and 28.92 L/kg and 28.37 L/kg
same,t1/2z,"[1]; individual rats 1-3, 10 mg/kg",181 min and 241 min
same,concentration at 0.5 min,[1]; [3],71700 ± 5620 ng/mL
same,concentration at 0.5 min,[1]; [4],78100 ng/mL
same,concentration at 0.05 h,[1]; [3],17100 ± 5230 ng/mL
same,concentration at 0.05 h,[1]; [4],21700 ng/mL
same,concentration at 8 min,"[1]; male, Sprague-Dawley, rat, plasma, iv, 10 mg/kg, 8 min, Mean±SD, read-out: Plasma concentrations of CK",2280 ± 940 ng/mL
same,concentration at 0.25 h,[1]; [3],1080 ± 359 ng/mL
same,concentration at 0.25 h,[1]; [4],1260 ng/mL
same,concentration at 0.5 h,[1]; [3],333 ± 103 ng/mL
same,concentration at 0.5 h,[1]; [4],393 ng/mL
same,concentration at 1 h,"[1]; male, Sprague-Dawley, rat, plasma, iv, 10 mg/kg, 1 h, Mean±SD, read-out: Plasma concentrations of CK",95.5 ± 17.5 ng/mL
same,concentration at 1 h,"[1]; male, Sprague-Dawley, rat, plasma, iv, 10 mg/kg, 1 h, individual rats 1-3, read-out: Plasma concentrations of CK",103 ng/mL
same,concentration at 2 h,"[1]; male, Sprague-Dawley, rat, plasma, iv, 10 mg/kg, 2 h, Mean±SD, read-out: Plasma concentrations of CK",52.1 ± 9.87 ng/mL
same,concentration at 2 h,"[1]; male, Sprague-Dawley, rat, plasma, iv, 10 mg/kg, 2 h, individual rats 1-3, read-out: Plasma concentrations of CK",60.3 ng/mL
same,concentration at 4 h,"[1]; male, Sprague-Dawley, rat, plasma, iv, 10 mg/kg, 4 h, Mean±SD, read-out: Plasma concentrations of CK",53.6 ± 28.4 ng/mL
same,concentration at 6 h,"[1]; male, Sprague-Dawley, rat, plasma, iv, 10 mg/kg, 6 h, Mean±SD, read-out: Plasma concentrations of CK",20.3 ± 6.66 ng/mL
same,concentration at 6 h,"[1]; male, Sprague-Dawley, rat, plasma, iv, 10 mg/kg, 6 h, individual rats 1-3, read-out: Plasma concentrations of CK",19.7 ng/mL
same,concentration at 9 h,"[1]; male, Sprague-Dawley, rat, plasma, iv, 10 mg/kg, 9 h, Mean±SD, read-out: Plasma concentrations of CK",12.4 ± 3.64 ng/mL
same,concentration at 9 h,"[1]; male, Sprague-Dawley, rat, plasma, iv, 10 mg/kg, 9 h, individual rats 1-3, read-out: Plasma concentrations of CK",9.16 ng/mL
same,AUC(0-inf),[1]; [5],3790 ± 685 ng·h/mL
same,AUC(0-t),"[1]; male, Sprague-Dawley, rat, plasma, iv, 10 mg/kg, Mean±SD, read-out: AUC(0-t)",3740 ± 684 ng·h/mL
same,MRT last,[1]; [5],21.6 ± 4.8 min
same,MRT inf,"[1]; male, Sprague-Dawley, rat, plasma, iv, 10 mg/kg, Mean±SD, read-out: MRT(0-∞)",34.2 ± 12.6 min
same,half-life,[1]; [5],186 ± 52.2 min
same,AUC(0-inf),[1]; [6],4290 ng·h/mL
same,AUC(0-t),"[1]; male, Sprague-Dawley, rat, plasma, iv, 10 mg/kg, individual rats 1-3, read-out: AUC(0-t)",4260 ng·h/mL
same,MRT last,[1]; [6],18 min
same,half-life,[1]; [6],137 min
same,exposure levels of CK in females versus males,[2]; healthy Chinese subjects,higher
same,dose-normalized Cmax and t1/2 in females versus males,"[2]; multiple-dose trial in humans, day 1 and day 15",significantly higher
